From patent US11084829B2, “Ubiquitin-specific-processing protease 7 (USP7) modulators and uses thereof” (RAPT THERAPEUTICS, INC., priority 2018, dated 2021)

Biological target: USP7 (Homo sapiens, UniProt Q93009)
Experiment: USP7 inhibitory potency (IC50)
Format: biochemical
Method: Activity for compounds described herein is provided in Table 2, wherein potency levels are provided as follows: (Potency: USP7 IC50: A<0.01 μM; B=0.01-0.1 μM; C=>0.1 μM.

Chain of USP7 (Q93009 whole entry): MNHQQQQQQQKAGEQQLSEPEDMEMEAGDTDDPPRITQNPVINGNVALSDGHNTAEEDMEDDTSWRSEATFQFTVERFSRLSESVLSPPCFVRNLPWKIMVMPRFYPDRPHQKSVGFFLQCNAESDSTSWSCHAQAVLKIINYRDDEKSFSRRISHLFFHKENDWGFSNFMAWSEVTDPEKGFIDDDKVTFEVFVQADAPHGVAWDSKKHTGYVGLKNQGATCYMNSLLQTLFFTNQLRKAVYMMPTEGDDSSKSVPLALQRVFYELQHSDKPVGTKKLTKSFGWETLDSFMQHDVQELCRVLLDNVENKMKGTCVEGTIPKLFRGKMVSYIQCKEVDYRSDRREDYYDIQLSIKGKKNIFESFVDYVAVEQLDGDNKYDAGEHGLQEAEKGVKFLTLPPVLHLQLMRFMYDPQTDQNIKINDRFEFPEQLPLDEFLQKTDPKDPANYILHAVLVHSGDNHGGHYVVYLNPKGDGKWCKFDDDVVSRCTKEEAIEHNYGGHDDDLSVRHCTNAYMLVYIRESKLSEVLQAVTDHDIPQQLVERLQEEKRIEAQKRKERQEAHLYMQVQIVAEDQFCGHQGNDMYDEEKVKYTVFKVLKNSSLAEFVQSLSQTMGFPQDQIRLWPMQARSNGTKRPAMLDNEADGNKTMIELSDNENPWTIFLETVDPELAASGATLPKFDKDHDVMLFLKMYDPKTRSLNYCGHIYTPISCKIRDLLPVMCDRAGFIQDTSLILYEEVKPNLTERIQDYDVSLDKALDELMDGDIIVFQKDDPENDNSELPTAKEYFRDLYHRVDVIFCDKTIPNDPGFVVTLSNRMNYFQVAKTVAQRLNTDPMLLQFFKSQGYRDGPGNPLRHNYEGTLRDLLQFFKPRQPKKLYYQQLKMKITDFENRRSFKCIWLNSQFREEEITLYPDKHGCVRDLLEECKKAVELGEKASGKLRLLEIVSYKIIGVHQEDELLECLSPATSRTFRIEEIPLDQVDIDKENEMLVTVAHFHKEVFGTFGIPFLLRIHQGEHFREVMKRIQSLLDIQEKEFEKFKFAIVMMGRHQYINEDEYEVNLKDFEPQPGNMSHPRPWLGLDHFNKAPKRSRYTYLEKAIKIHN

Cc1cc(Cl)cc(-c2ccnc3cc(CN4C(=O)C5CC5C4=O)sc23)c1CN1CCCNCC1C (stereo not shown) [Example 38, 3-((7-(5-chloro-3-methyl-2-((2-methyl-1,4-diazepan-1-yl)methyl)phenyl)thieno[3,2-b]pyridin-2-yl)methyl)-3-azabicyclo[3.1.0]hexane-2,4-dione]
IC50: < 10 nM

Cc1cc(Cl)cc(-c2ccnc3cc(CN4C(=O)CCC4=O)sc23)c1CN1C[C@@H](C)N[C@H](C)C1 [Example 26, 1-((7-(5-chloro-2-(((3R,5R)-3,5-dimethylpiperazin-1-yl)methyl)-3-methylphenyl)thieno[3,2-b]pyridin-2-yl)methyl)pyrrolidine-2,5-dione]
IC50: < 10 nM

Cc1cc(Cl)cc(-c2ncnc3cc(CN4C(=O)CC[C@@H]4CO)sc23)c1CC1CNCC(C)(C)O1 (stereo partly drawn) [Example 206, (5R)-1-((4-(5-chloro-2-((6,6-dimethylmorpholin-2-yl)methyl)-3-methylphenyl)thieno[3,2-d]pyrimidin-6-yl)methyl)-5-(hydroxymethyl)pyrrolidin-2-one]
IC50: 10 to 100 nM

Cc1cc(Cl)cc(-c2ccnc3c(F)c(CN4C(=O)CCN(C)C4=O)sc23)c1C[C@@H]1CNCCO1 [Example 148, (R)-3-((7-(5-chloro-3-methyl-2-(morpholin-2-ylmethyl)phenyl)-3-fluorothieno[3,2-b]pyridin-2-yl)methyl)-1-methyldihydropyrimidine-2,4(1H,3H)-dione]
IC50: 10 to 100 nM

Cc1cc(Cl)cc(-c2ccnc3cc(CN4C(=O)C5CC5C4=O)sc23)c1CC1CNCCCO1 (stereo not shown) [Example 118, 3-((7-(2-((1,4-oxazepan-2-yl)methyl)-5-chloro-3-methylphenyl)thieno[3,2-b]pyridin-2-yl)methyl)-3-azabicyclo[3.1.0]hexane-2,4-dione]
IC50: < 10 nM

CC1(C)CNCC(Cc2c(Cl)cc(Cl)cc2-c2ccnc3cc(CN4C(=O)C5CC5C4=O)sc23)O1 (stereo not shown) [Example 139, 3-((7-(3,5-dichloro-2-((6,6-dimethylmorpholin-2-yl)methyl)phenyl)thieno[3,2-b]pyridin-2-yl)methyl)-3-azabicyclo[3.1.0]hexane-2,4-dione]
IC50: < 10 nM

Cc1cc(Cl)cc(-c2ccnc3cc(CN4C(=O)C5CC5C4=O)sc23)c1CC1CNCC2(CC2)O1 (stereo not shown) [Example 132, 3-((7-(2-((4-oxa-7-azaspiro[2.5]octan-5-yl)methyl)-5-chloro-3-methylphenyl)thieno[3,2-b]pyridin-2-yl)methyl)-3-azabicyclo[3.1.0]hexane-2,4-dione]
IC50: < 10 nM

Cc1cc(Cl)cc(-c2ncnc3cc(CN4C(=O)C5CC5C4=O)sc23)c1CN1C[C@@H](C)NC[C@@H]1C (stereo partly drawn) [Example 65, 3-((4-(5-chloro-2-(((2S,5R)-2,5-dimethylpiperazin-1-yl)methyl)-3-methylphenyl)thieno[3,2-d]pyrimidin-6-yl)methyl)-3-azabicyclo[3.1.0]hexane-2,4-dione]
IC50: < 10 nM

Cc1cc(Cl)cc(-c2ncnc3cc(CN4C(=O)C5CC5C4=O)sc23)c1CN1CCN(C)C[C@@H]1C (stereo partly drawn) [Example 55, 3-((4-(5-chloro-2-(((S)-2,4-dimethylpiperazin-1-yl)methyl)-3-methylphenyl)thieno[3,2-d]pyrimidin-6-yl)methyl)-3-azabicyclo[3.1.0]hexane-2,4-dione]
IC50: 10 to 100 nM

Cc1cc(Cl)cc(-c2ncnc3cc(Cn4c(=O)cc[nH]c4=O)sc23)c1C[C@@H]1CNCC(C)(C)O1 [Example 266, (R)-3-((4-(5-chloro-2-((6,6-dimethylmorpholin-2-yl)methyl)-3-methylphenyl)thieno[3,2-d]pyrimidin-6-yl)methyl)pyrimidine-2,4(1H,3H)-dione]
IC50: 10 to 100 nM

Cc1cc(Cl)cc(-c2ncnc3cc(CN4C(=O)CCN(C)C4=O)sc23)c1CC1CNCC2(CCC2)O1 (stereo not shown) [Example 222, 3-((4-(2-((5-oxa-8-azaspiro[3.5]nonan-6-yl)methyl)-5-chloro-3-methylphenyl)thieno[3,2-d]pyrimidin-6-yl)methyl)-1-methyldihydropyrimidine-2,4(1H,3H)-dione]
IC50: < 10 nM

Cc1cc(Cl)cc(-c2ncnc3cc(CN4C(=O)C5C(C4=O)C5(C)C)sc23)c1CC1(C)CNCCO1 (stereo not shown) [Example 157, 3-((4-(5-chloro-3-methyl-2-((2-methylmorpholin-2-yl)methyl)phenyl)thieno[3,2-d]pyrimidin-6-yl)methyl)-6,6-dimethyl-3-azabicyclo[3.1.0]hexane-2,4-dione]
IC50: 10 to 100 nM

Cc1cc(Cl)cc(-c2ncnc3cc(Cn4c(=O)ccn(C)c4=O)sc23)c1CC1CNCCO1 (stereo not shown) [Example 162, 3-((4-(5-chloro-3-methyl-2-(morpholin-2-ylmethyl)phenyl)thieno[3,2-d]pyrimidin-6-yl)methyl)-1-methylpyrimidine-2,4(1H,3H)-dione]
IC50: < 10 nM

Cc1cc(Cl)cc(-c2ccnc3cc(CN4C(=O)C5C(C4=O)C5(C)C)sc23)c1CC1CNCCO1 (stereo not shown) [Example 103, 3-((7-(5-chloro-3-methyl-2-(morpholin-2-ylmethyl)phenyl)thieno[3,2-b]pyridin-2-yl)methyl)-6,6-dimethyl-3-azabicyclo[3.1.0]hexane-2,4-dione]
IC50: < 10 nM

3-((7-(5-chloro-2-(((2S,6S)-2,6-dimethyl piperazin-1-yl)methyl)-3-methylphenyl)thieno[3,2-b]pyridin-2-yl)methyl)-1-methylpyrimidine-2,4(1H,3H)-dione [Example 78]
IC50: < 10 nM

COC(=O)[C@H]1CCC(=O)N1Cc1cc2ncnc(-c3cc(Cl)cc(C)c3C[C@@H]3CNCC(C)(C)O3)c2s1 [Example 224, methyl (R)-1-((4-(5-chloro-2-(((R)-6,6-dimethylmorpholin-2-yl)methyl)-3-methylphenyl)thieno[3,2-d]pyrimidin-6-yl)methyl)-5-oxopyrrolidine-2-carboxylate]
IC50: < 10 nM

Cc1cc(Cl)cc(-c2ncnc3cc(Cn4c(=O)ccn(C)c4=O)sc23)c1CC1CNCC2(CCC2)O1 (stereo not shown) [Example 223, 3-((4-(2-((5-oxa-8-azaspiro[3.5]nonan-6-yl)methyl)-5-chloro-3-methylphenyl)thieno[3,2-d]pyrimidin-6-yl)methyl)-1-methylpyrimidine-2,4(1H,3H)-dione]
IC50: < 10 nM

Cc1cc(Cl)cc(-c2ncnc3cc(CN4C(=O)CC(C)(C)CC4=O)sc23)c1CN1C[C@@H](C)NC[C@@H]1C [Example 70, 1-((4-(5-chloro-2-(((2S,5R)-2,5-dimethylpiperazin-1-yl)methyl)-3-methylphenyl)thieno[3,2-d]pyrimidin-6-yl)methyl)-4,4-dimethylpiperidine-2,6-dione]
IC50: 10 to 100 nM

Cc1cc(Cl)cc(-c2ccnc3cc(CN4C(=O)CCN(C)C4=O)sc23)c1CC1CNCC2(CCC2)O1 (stereo not shown) [Example 144, 3-((7-(2-((5-oxa-8-azaspiro[3.5]nonan-6-yl)methyl)-5-chloro-3-methylphenyl)thieno[3,2-b]pyridin-2-yl)methyl)-1-methyldihydropyrimidine-2,4(1H,3H)-dione]
IC50: < 10 nM

CCC1NC(=O)N(Cc2cc3ncnc(-c4cc(Cl)cc(C)c4C[C@@H]4CNCCO4)c3s2)C1=O (stereo partly drawn) [Example 245, 3-((4-(5-chloro-3-methyl-2-(((R)-morpholin-2-yl)methyl)phenyl)thieno[3,2-d]pyrimidin-6-yl)methyl)-5-ethylimidazolidine-2,4-dione]
IC50: < 10 nM

3-((7-(3,5-dichloro-2-(((2S,6S)-2,6-dimethylpiperazin-1-yl)methyl)phenyl)thieno[3,2-b]pyridin-2-yl)methyl)-1-methylpyrimidine-2,4(1H,3H)-dione [Example 95]
IC50: < 10 nM

Cc1cc(Cl)cc(-c2ccnc3cc(Cn4c(=O)ccn(CC(F)(F)F)c4=O)sc23)c1CN1CCNCC1=O [Example 4, 3-((7-(5-chloro-3-methyl-2-((2-oxopiperazin-1-yl)methyl)phenyl)thieno[3,2-b]pyridin-2-yl)methyl)-1-(2,2,2-trifluoroethyl)pyrimidine-2,4(1H,3H)-dione]
IC50: > 100 nM

Cc1cc(Cl)cc(-c2ncnc3cc(CN4C(=O)CN(CC(F)F)C4=O)sc23)c1CN1[C@@H](C)CNC[C@@H]1C [Example 277, 3-((4-(5-chloro-2-(((2S,6S)-2,6-dimethylpiperazin-1-yl)methyl)-3-methylphenyl)thieno[3,2-d]pyrimidin-6-yl)methyl)-1-(2,2-difluoroethyl)imidazolidine-2,4-dione]
IC50: < 10 nM

Cc1cc(Cl)cc(-c2ccnc3cc(CN4C(=O)CCC4=O)sc23)c1CN1CCN(C(C)C)C[C@@H]1C [Example 21, (S)-1-((7-(5-chloro-2-((4-isopropyl-2-methylpiperazin-1-yl)methyl)-3-methylphenyl)thieno[3,2-b]pyridin-2-yl)methyl)pyrrolidine-2,5-dione]
IC50: < 10 nM

Cc1cc(Cl)cc(-c2ncnc3cc(CN4C(=O)CN(C)C4=O)sc23)c1CC1CNCCO1 (stereo not shown) [Example 177, 3-((4-(5-chloro-3-methyl-2-(morpholin-2-ylmethyl)phenyl)thieno[3,2-d]pyrimidin-6-yl)methyl)-1-methylimidazolidine-2,4-dione]
IC50: < 10 nM

CC1(C)CNCC(Cc2c(Cl)cc(Cl)cc2-c2ccnc3cc(CN4C(=O)CCC4=O)sc23)O1 (stereo not shown) [Example 128, 1-((7-(3,5-dichloro-2-((6,6-dimethylmorpholin-2-yl)methyl)phenyl)thieno[3,2-b]pyridin-2-yl)methyl)pyrrolidine-2,5-dione]
IC50: < 10 nM

Cc1cc(Cl)cc(-c2ccnc3cc(CN4C(=O)C5C(C4=O)C5(C)C)sc23)c1CC1CNCC(C)(C)O1 (stereo not shown) [Example 97, 3-((7-(5-chloro-2-((6,6-dimethylmorpholin-2-yl)methyl)-3-methylphenyl)thieno[3,2-b]pyridin-2-yl)methyl)-6,6-dimethyl-3-azabicyclo[3.1.0]hexane-2,4-dione]
IC50: < 10 nM

CN1CCC(=O)N(Cc2cc3ncnc(-c4cc(Cl)cc(Cl)c4CC4CNCC(C)(C)O4)c3s2)C1=O (stereo not shown) [Example 210, 3-((4-(3,5-dichloro-2-((6,6-dimethylmorpholin-2-yl)methyl)phenyl)thieno[3,2-d]pyrimidin-6-yl)methyl)-1-methyldihydropyrimidine-2,4(1H,3H)-dione]
IC50: < 10 nM
